From ChEMBL document CHEMBL4184231, “Selective inhibition of monoamine oxidase A by hispidol” (Bioorg Med Chem Lett, 2018)
pIC50, pKi: −log10 of the molar value. Blank lines part the entries; values can stand above or below the molecule they belong to.

Columns and labels:
[1] = biological target: T1, Amine oxidase [flavin-containing] B (Homo sapiens, UniProt P27338); assay: Reversible inhibition of human recombinant MAOB assessed as residual enzyme activity at 5 uM pre-incubated with enzyme for 30 mins followed by dialysis with pH 7.2 sodium phosphate buffer for 6 hrs followed by 0.06 mM benzylamine substrate addition; conditions: pH 7.2, 6 h
T1 sequence (P27338 whole entry): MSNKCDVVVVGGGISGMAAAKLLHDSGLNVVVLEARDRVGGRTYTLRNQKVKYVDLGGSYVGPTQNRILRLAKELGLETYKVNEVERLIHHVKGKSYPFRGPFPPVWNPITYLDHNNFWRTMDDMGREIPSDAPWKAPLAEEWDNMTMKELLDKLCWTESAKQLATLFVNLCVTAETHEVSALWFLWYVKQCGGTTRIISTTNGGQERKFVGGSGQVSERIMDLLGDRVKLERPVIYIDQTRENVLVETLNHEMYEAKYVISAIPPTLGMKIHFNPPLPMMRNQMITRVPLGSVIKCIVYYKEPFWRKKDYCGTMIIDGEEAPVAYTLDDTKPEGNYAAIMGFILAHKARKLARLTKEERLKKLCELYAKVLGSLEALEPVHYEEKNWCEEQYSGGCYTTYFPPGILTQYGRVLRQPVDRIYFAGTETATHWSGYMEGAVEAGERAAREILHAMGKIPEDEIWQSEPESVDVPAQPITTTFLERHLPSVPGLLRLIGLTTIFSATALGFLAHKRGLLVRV

[2] = biological target: T1, Amine oxidase [flavin-containing] B; assay: Inhibition of human recombinant MAOB assessed as residual enzyme activity at 5 uM pre-incubated for 30 mins followed by 0.06 mM benzylamine substrate addition
[3] = biological target: T2, Amine oxidase [flavin-containing] A (Homo sapiens, UniProt P21397); assay: Inhibition of human recombinant MAOA assessed as residual enzyme activity at 0.5 uM pre-incubated for 30 mins followed by 0.06 mM kynuramine substrate addition; conditions: read-out: INH
T2 sequence (P21397 whole entry): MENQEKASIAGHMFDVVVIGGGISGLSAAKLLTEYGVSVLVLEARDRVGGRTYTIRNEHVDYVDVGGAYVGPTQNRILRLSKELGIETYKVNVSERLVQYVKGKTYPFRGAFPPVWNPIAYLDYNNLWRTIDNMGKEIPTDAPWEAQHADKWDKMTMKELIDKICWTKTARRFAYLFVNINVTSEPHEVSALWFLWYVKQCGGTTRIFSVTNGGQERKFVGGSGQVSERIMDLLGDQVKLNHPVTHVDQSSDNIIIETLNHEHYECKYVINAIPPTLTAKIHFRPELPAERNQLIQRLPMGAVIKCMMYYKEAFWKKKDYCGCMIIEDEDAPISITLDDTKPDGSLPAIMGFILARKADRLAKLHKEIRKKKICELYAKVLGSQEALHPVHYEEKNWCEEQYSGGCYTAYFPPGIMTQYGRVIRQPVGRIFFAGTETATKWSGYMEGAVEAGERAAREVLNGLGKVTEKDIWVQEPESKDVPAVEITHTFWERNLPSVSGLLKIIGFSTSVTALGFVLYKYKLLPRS

[4] = biological target: T2, Amine oxidase [flavin-containing] A; assay: Time dependent inhibition of human recombinant MAOA using kynuramine as substrate preincubated for up to 30 mins followed by substrate addition
[5] = biological target: T2, Amine oxidase [flavin-containing] A; assay: Inhibition of human recombinant MAOA using kynuramine as substrate preincubated for 30 mins followed by substrate addition
[6] = biological target: T2, Amine oxidase [flavin-containing] A; assay: Reversible inhibition of human recombinant MAOA assessed as residual enzyme activity at 0.5 uM pre-incubated with enzyme for 30 mins followed by dialysis with pH 7.2 sodium phosphate buffer for 6 hrs followed by 0.06 mM kynuramine substrate addition; conditions: read-out: INH
[7] = biological target: T2, Amine oxidase [flavin-containing] A; assay: Competitive inhibition of human recombinant MAOA using 0.006 to […] kynuramine as substrate preincubated for 30 mins followed by substrate addition by Lineweaver-Burk plot
[8] = biological target: T2, Amine oxidase [flavin-containing] A; assay: Inhibition of human recombinant MAOA assessed as residual enzyme activity at 0.01 uM pre-incubated for 30 mins followed by 0.06 mM kynuramine substrate addition; conditions: read-out: Activity
[9] = biological target: T2, Amine oxidase [flavin-containing] A; assay: Irreversible inhibition of human recombinant MAOA assessed as residual enzyme activity at 0.01 uM pre-incubated with enzyme for 30 mins followed by dialysis with pH 7.2 sodium phosphate buffer for 6 hrs followed by 0.06 mM kynuramine substrate addition; conditions: read-out: Activity
[10] = biological target: T1, Amine oxidase [flavin-containing] B; assay: Reversible inhibition of human recombinant MAOB assessed as residual enzyme activity at 2 times IC50 pre-incubated with enzyme for 30 mins followed by dialysis with pH 7.2 sodium phosphate buffer for 6 hrs followed by 0.06 mM benzylamine substrate addition; conditions: pH 7.2, 6 h
[11] = biological target: T1, Amine oxidase [flavin-containing] B; assay: Inhibition of human recombinant MAOB assessed as residual enzyme activity at 2 time IC50 pre-incubated for 30 mins followed by 0.06 mM benzylamine substrate addition
[12] = species on record: Homo sapiens; assay: Selectivity index, ratio of IC50 for human recombinant MAOB to IC50 for human recombinant MAOA
[13] = biological target: T1, Amine oxidase [flavin-containing] B; assay: Inhibition of human recombinant MAOB at 80 uM using benzylamine as substrate preincubated for 30 mins followed by substrate addition
[14] = biological target: T1, Amine oxidase [flavin-containing] B; assay: Inhibition of human recombinant MAOB using benzylamine as substrate preincubated for 30 mins followed by substrate addition
[15] = biological target: T2, Amine oxidase [flavin-containing] A; assay: Reversible inhibition of human recombinant MAOA assessed as residual enzyme activity at 2 uM pre-incubated with enzyme for 30 mins followed by dialysis with pH 7.2 sodium phosphate buffer for 6 hrs followed by 0.06 mM kynuramine substrate addition; conditions: read-out: Activity
[16] = biological target: T2, Amine oxidase [flavin-containing] A; assay: Inhibition of human recombinant MAOA assessed as residual enzyme activity at 2 uM pre-incubated for 30 mins followed by 0.06 mM kynuramine substrate addition; conditions: read-out: Activity

Activity [1]: 28%
Activity [2]: 87.5%
activity at 0.5 µM [3]: 29.8%
TDI [4]: Not Active
pIC50 [5]: 6.59
activity at 0.5 µM [6]: 83.7%
pKi [7]: 7.00
SMILES: O=C1/C(=C/c2ccc(O)cc2)Oc2cc(O)ccc21

SMILES: COc1cc(O)c2c(=O)oc3cc(O)cc(C)c3c2c1
pIC50 [5]: 5.77

pIC50 [5]: 6.72
SMILES: COc1ccc(-c2cc(=O)c3c(O)cc(O)cc3o2)cc1 [ACACETIN]

SMILES: O=c1cc(-c2ccc(O)cc2)oc2cc(O)cc(O)c12 [APIGENIN]
pIC50 [5]: 5.81

SMILES: C#CCN(C)CCCOc1ccc(Cl)cc1Cl [CLORGILINE]
activity at 0.01 µM [8]: 18.3%
activity at 0.01 µM [9]: 17.3%

pIC50 [5]: 5.75
SMILES: CC(C)=CC(=O)O[C@H]1Cc2cc3ccc(=O)oc3cc2OC1(C)C [DECURSIN]

SMILES: NCCNC(=O)c1ccc(Cl)cn1 [LAZABEMIDE]
Activity [10]: 35%
Activity [11]: 72.9%

TDI [4]: Not Active
pIC50 [5]: 5.38
Ratio IC50 [12]: > 19.2
inhibition at 80 µM [13]: 20.8%
pIC50 [14]: < 4.10
SMILES: O=C1/C(=C/c2ccc(O)c(O)c2)Oc2cc(O)ccc21 [SULFURETIN]

SMILES: Cc1cccc(N2CC(CO)OC2=O)c1 (configuration not stated) [TOLOXATONE]
activity at 2 µM [15]: 30.7%
activity at 2 µM [16]: 75.4%
